Test results as given in US20220064696A1, “TARGET ENGAGEMENT ASSAY FOR RAS PROTEINS” (Promega Corporation, priority 2020, published 2022).

Columns and labels:
Type in all cases: binding
KRAS2B(G12V) [1] = biological target: T1, KRAS2B(G12V) (Homo sapiens, UniProt P01116, G12V); test: Target engagement at KRAS(G12V) homomultimeric complexes, NanoBiT oligomer configuration with SmBiT tag; details: live HEK293 cells, LgBiT-KRAS2B(G12V) and SmBiT-KRAS2B(G12V)
T1 construct: expressed in transfected cells; host or cells: HEK293
Method: (§1) To explore this concept, the NanoBiT™ Technology was used to observe KRAS multimeric (e.g., dimer) complexes by NanoBiT tagging of KRAS, wherein BRET donor signal originates from an oligomeric KRAS. In a tissue culture flask, HEK293 cells per well were transfected with KRAS-NanoBiT fusions, LgBiT-KRAS2B(G12V) and SmBiT-KRAS2B(G12V) expressed from pNB3K or pNB4K plasmids along with pGEM-3Z carrier DNA (1:1:8 ratio by mass). Transfections were performed using 3:1 FuGENE HD:plasmid ratios. 24 hours post transfection, cells were treated with compound JRW-2192 and BI-2852.
(§2) After incubation in live cells, NanoBRET-TE substrate solution was added to a final concentration of 1×, and BRET was measured on a Glomax Discover plate reader.

KRAS [2] = biological target: T2, KRAS (Homo sapiens, UniProt P01116); test: NanoBiT BRET target engagement assay in cells, LgBiT and SmBiT fusions, tracer JRW-2111; details: HEK293 cells, wild-type KRAS LgBiT/SmBiT fusions, tracer JRW-2111, FIGS. 2-3
T2 construct: expressed in transfected cells; host or cells: HEK293
Method: (§3) Luminescence was produced from either NanoLuc (Nluc) tagging of KRAS as the BRET donor, or by NanoBiT tagging of KRAS, wherein BRET donor signal originates from KRAS multimeric species in cells. In 96-well plates, 20,000 HEK293 cells per well were transfected with KRAS-Nluc fusions or KRAS-NanoBiT fusions expressed from pFN31K and pFN32K plasmids. Transfections were performed using 3:1 FuGENE HD:plasmid ratios. […] After incubation, NanoBRET-TE substrate solution was added to a final concentration of 1×, and BRET was measured on a Glomax Discover plate reader.

KRAS^G12C [3] = biological target: T3, KRAS^G12C (Homo sapiens, UniProt P01116, G12C); test: as above; details: HEK293 cells, tracer JRW-2111, FIGS. 2-3
T3 construct: expressed in transfected cells; host or cells: HEK293
Method: as §3

KRAS^G12D [4] = biological target: T4, KRAS^G12D (Homo sapiens, UniProt P01116, G12D); test: as above; details: HEK293 cells, tracer JRW-2111, FIGS. 2-3
T4 construct: expressed in transfected cells; host or cells: HEK293
Method: as §3

KRAS^G12V [5] = biological target: T5, KRAS^G12V (Homo sapiens, UniProt P01116, G12V); test: as above; details: HEK293 cells, tracer JRW-2111, FIGS. 2-3
T5 construct: expressed in transfected cells; host or cells: HEK293
Method: as §3

KRAS [6] = biological target: T2, KRAS; test: NanoLuc fusion BRET target engagement assay in cells, tracer JRW-2025; details: HEK293 cells, wild-type KRAS-NanoLuc fusion, tracer JRW-2025, FIG. 4
Method: as §3

KRAS^G12C [7] = biological target: T3, KRAS^G12C; test: as above; details: HEK293 cells, tracer JRW-2025, FIG. 4
Method: as §3

KRAS^G12D [8] = biological target: T4, KRAS^G12D; test: as above; details: HEK293 cells, tracer JRW-2025, FIG. 4
Method: as §3

KRAS^G12V [9] = biological target: T5, KRAS^G12V; test: as above; details: HEK293 cells, tracer JRW-2025, FIG. 4
Method: as §3

KRAS2B(G12C) [10] = biological target: T6, KRAS2B(G12C) (Homo sapiens, UniProt P01116, G12C); test: Target engagement at KRAS(G12C) homomultimeric complexes, NanoBiT oligomer configuration with SmBiT tag; details: LgBiT-KRAS2B(G12C) and SmBiT-KRAS2B(G12C)
T6 construct: expressed in transfected cells; host or cells: HEK293
Method: as §1, with “LgBiT-KRAS2B(G12C)” for “LgBiT-KRAS2B(G12V)”, “SmBiT-KRAS2B(G12C)” for “SmBiT-KRAS2B(G12V)”, “JRW-2220” for “JRW-2192”
as §2
The assay was also performed in digitonin permeabilized cells.

KRAS2B(G12C) [11] = biological target: T6, KRAS2B(G12C); test: KRAS(G12C) homomultimeric complexes, NanoBiT oligomer configuration with HiBiT tag; details: LgBiT-KRAS2B(G12C) and HiBiT-KRAS2B(G12C)
Method: as §1, with “form” for “observe”, “LgBiT-KRAS2B(G12C)” for “LgBiT-KRAS2B(G12V)”, “HiBiT-KRAS2B(G12C)” for “SmBiT-KRAS2B(G12V)”, “pFN38A” for “pNB4K”, “JRW-2220” for “JRW-2192”
as §2
The assay was also performed in digitonin permeabilized cells. Even after permeabilization, donor signal levels remained significant due to the use of the HiBiT tag, facilitating measurement of target engagement.

HRAS1 = biological target: T7, HRAS1 (Homo sapiens, UniProt P01112); test: RAS NanoBiT target engagement assay in cells (LgBiT-RAS and SmBiT-RAS); details: HEK293 cells, LgBiT-HRAS1 and SmBiT-HRAS1, tracer JRW-2219 or JRW-2220, FIGS. 18-19
T7 construct: expressed in transfected cells; host or cells: HEK293
Method: (§4) To explore this concept, the NanoBiT™ Technology was used to form RAS multimeric (e.g., dimer) complexes by NanoBiT tagging of RAS, wherein BRET donor signal originates from an oligomeric RAS. In a tissue culture flask, HEK293 cells per well were transfected with RAS-NanoBiT fusions, LgBiT-RAS and SmBiT-RAS expressed from pNB3K or pNB4K plasmids along with pGEM-3Z carrier DNA (1:1:8 ratio by mass). Transfections were performed using 3:1 FuGENE HD:plasmid ratios. 24 hours post transfection, cells were treated with compound JRW-2219, JRW-2220, or JRW-2310, and BI-2852.

KRAS2B = biological target: T8, KRAS2B (Homo sapiens, UniProt P01116); test: as above; details: HEK293 cells, tracer JRW-2219, FIGS. 10-11
T8 construct: expressed in transfected cells; host or cells: HEK293
Method: as §4

KRAS2B(G12C) [12] = biological target: T6, KRAS2B(G12C); test: as above; details: HEK293 cells, tracer JRW-2219 or JRW-2220, FIGS. 12-13
Method: as §4

KRAS2B(G12D) = biological target: T9, KRAS2B(G12D) (Homo sapiens, UniProt P01116, G12D); test: as above; details: HEK293 cells, tracer JRW-2219 or JRW-2220, FIGS. 14-15
T9 construct: expressed in transfected cells; host or cells: HEK293
Method: as §4

KRAS2B(G12V) [13] = biological target: T1, KRAS2B(G12V); test: as above; details: HEK293 cells, tracer JRW-2219 or JRW-2220, FIGS. 16-17
Method: as §4

KRAS2B(G13D) = biological target: T10, KRAS2B(G13D) (Homo sapiens, UniProt P01116, G13D); test: as above; details: HEK293 cells, tracer JRW-2310, FIG. 24
T10 construct: expressed in transfected cells; host or cells: HEK293
Method: as §4

KRAS2B(Q61H) = biological target: T11, KRAS2B(Q61H) (Homo sapiens, UniProt P01116, Q61H); test: as above; details: HEK293 cells, tracer JRW-2310, FIG. 22
T11 construct: expressed in transfected cells; host or cells: HEK293
Method: as §4

KRAS2B(Q61L) = biological target: T12, KRAS2B(Q61L) (Homo sapiens, UniProt P01116, Q61L); test: as above; details: HEK293 cells, tracer JRW-2310, FIG. 23
T12 construct: expressed in transfected cells; host or cells: HEK293
Method: as §4

KRAS2B(Q61R) = biological target: T13, KRAS2B(Q61R) (Homo sapiens, UniProt P01116, Q61R); test: as above; details: HEK293 cells, tracer JRW-2310, FIG. 21
T13 construct: expressed in transfected cells; host or cells: HEK293
Method: as §4

O=C(CCc1ccc2n1[B-](F)(F)[N+]1=C(c3ccc[nH]3)C=CC1=C2)NCCOCCOCCOCCOCCC(=O)NCc1cccc(Cn2ccc3ccc(CNCc4[nH]c5ccccc5c4C4NC(=O)c5ccc(O)cc54)cc32)c1 (stereo not shown) [JRW-2192, 1-(3-(5,5-difluoro-7-(1H-pyrrol-2-yl)-5H-5λ^4,6λ^4-dipyrrolo[1,2-c:2′,1′-f][1,3,2]diazaborinin-3-yl)propanamido)-N-(3-((6-((((3-(6-hydroxy-3-oxoisoindolin-1-yl)-1H-indol-2-yl)methyl)amino)methyl)-1H-indol-1-yl)methyl)benzyl)-3,6,9,12-tetraoxapentadecan-15-amide]
BRET signal with increasing concentrations of the tracer (KRAS2B(G12V) [1]; FIG. 5): dose-dependent increase in the BRET signal

Cn1cnc(Cn2ccc3ccc(CNCc4[nH]c5ccccc5c4[C@H]4NC(=O)c5ccc(O)cc54)cc32)c1 [BI-2852]
target engagement (competition with the KRAS binding agent, BRET) (KRAS [2]): target engagement was observed
target engagement (competition with the KRAS binding agent, BRET) (KRAS^G12C [3]): target engagement was observed
target engagement (competition with the KRAS binding agent, BRET) (KRAS^G12D [4]): target engagement was observed
target engagement (competition with the KRAS binding agent, BRET) (KRAS^G12V [5]): target engagement was observed
competition with the KRAS binding agent (BRET) (KRAS [6]): competition was observed
competition with the KRAS binding agent (BRET) (KRAS^G12C [7]): competition was observed
competition with the KRAS binding agent (BRET) (KRAS^G12D [8]): competition was observed
competition with the KRAS binding agent (BRET) (KRAS^G12V [9]): competition was observed
inhibition of the BRET signal induced by the tracer (functional competition) (KRAS2B(G12V) [1]; tracer JRW-2192, FIG. 5): dose-dependent inhibition of the BRET signal
inhibition of the BRET signal induced by the tracer (functional competition) (KRAS2B(G12C) [10]; digitonin permeabilized HEK293 cells, tracer JRW-2220, FIG. 7): dose-dependent inhibition of the BRET signal
inhibition of the BRET signal induced by the tracer (functional competition) (KRAS2B(G12C) [10]; live HEK293 cells, tracer JRW-2220, FIG. 6): dose-dependent inhibition of the BRET signal
inhibition of the BRET signal induced by the tracer (functional competition) (KRAS2B(G12C) [11]; digitonin permeabilized HEK293 cells, tracer JRW-2220, FIG. 9): dose-dependent inhibition of the BRET signal
inhibition of the BRET signal induced by the tracer (functional competition) (KRAS2B(G12C) [11]; live HEK293 cells, tracer JRW-2220, FIG. 8): dose-dependent inhibition of the BRET signal
target engagement (BRET, competition with the RAS binding agent) (HRAS1): target engagement was observed
target engagement (BRET, competition with the RAS binding agent) (KRAS2B): target engagement was observed
target engagement (BRET, competition with the RAS binding agent) (KRAS2B(G12C) [12]): target engagement was observed
target engagement (BRET, competition with the RAS binding agent) (KRAS2B(G12D)): target engagement was observed
target engagement (BRET, competition with the RAS binding agent) (KRAS2B(G12V) [13]): target engagement was observed
target engagement (BRET, competition with the RAS binding agent) (KRAS2B(G13D)): target engagement was observed
target engagement (BRET, competition with the RAS binding agent) (KRAS2B(Q61H)): target engagement was observed
target engagement (BRET, competition with the RAS binding agent) (KRAS2B(Q61L)): target engagement was observed
target engagement (BRET, competition with the RAS binding agent) (KRAS2B(Q61R)): target engagement was observed

C=CC(=O)N1CCN(c2ncnc3c(F)c(-c4c(O)cccc4F)c(Cl)cc23)CC1 [ARS-1620]
competition with the KRAS binding agent (BRET) (KRAS [6]): only observed for the KRAS^G12C mutant
competition with the KRAS binding agent (BRET) (KRAS^G12C [7]): competition was only observed for the KRAS^G12C mutant
competition with the KRAS binding agent (BRET) (KRAS^G12D [8]): only observed for the KRAS^G12C mutant
competition with the KRAS binding agent (BRET) (KRAS^G12V [9]): only observed for the KRAS^G12C mutant

O=C(CCOCCOCCOCCOCCNC(=O)CCc1ccc2n1[B-](F)(F)[N+]1=C(c3ccc[nH]3)C=CC1=C2)NCCCn1cnc(Cn2ccc3ccc(CNCc4[nH]c5ccccc5c4C4NC(=O)c5ccc(O)cc54)cc32)c1 (stereo not shown) [JRW-2220, 1-(3-(5,5-difluoro-7-(1H-pyrrol-2-yl)-5H-5λ^4,6λ^4-dipyrrolo[1,2-c:2′,1′-f][1,3,2]diazaborinin-3-yl)propanamido)-N-(3-(4-((6-((((3-(6-hydroxy-3-oxoisoindolin-1-yl)-1H-indol-2-yl)methyl)amino)methyl)-1H-indol-1-yl)methyl)-1H-imidazol-1-yl)propyl)-3,6,9,12-tetraoxapentadecan-15-amide]
BRET signal with increasing concentrations of the tracer (KRAS2B(G12C) [10]; digitonin permeabilized HEK293 cells, FIG. 7): dose-dependent increase in the BRET signal
BRET signal with increasing concentrations of the tracer (KRAS2B(G12C) [10]; live HEK293 cells, FIG. 6): dose-dependent increase in the BRET signal
BRET signal with increasing concentrations of the tracer (KRAS2B(G12C) [11]; digitonin permeabilized HEK293 cells, FIG. 9): dose-dependent increase in the BRET signal
BRET signal with increasing concentrations of the tracer (KRAS2B(G12C) [11]; live HEK293 cells, FIG. 8): dose-dependent increase in the BRET signal
